Measured values published in patent US20030083336A1, “Phenylpiperazinyl derivatives” (H. Lundbeck A/S, priority 1999, published 2003).

How the values were obtained:
D4 receptor = biological target: T1, D4 receptor (Homo sapiens, UniProt P21917); details: various in vitro efficacy assays; cited from earlier work
T1 sequence (P21917 1-419): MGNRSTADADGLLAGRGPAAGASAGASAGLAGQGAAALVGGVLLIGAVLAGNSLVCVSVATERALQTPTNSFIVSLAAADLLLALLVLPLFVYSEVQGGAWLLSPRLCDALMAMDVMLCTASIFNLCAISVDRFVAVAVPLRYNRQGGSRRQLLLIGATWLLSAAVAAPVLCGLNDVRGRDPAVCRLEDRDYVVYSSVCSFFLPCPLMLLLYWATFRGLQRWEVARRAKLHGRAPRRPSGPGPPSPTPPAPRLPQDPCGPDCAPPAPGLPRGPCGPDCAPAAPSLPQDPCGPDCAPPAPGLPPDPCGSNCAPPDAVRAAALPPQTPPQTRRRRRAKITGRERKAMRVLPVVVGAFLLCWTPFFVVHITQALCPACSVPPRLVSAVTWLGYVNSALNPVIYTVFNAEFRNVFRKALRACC

[1] = biological target: T2, human cloned dopamine D4.2 receptors (Homo sapiens, UniProt P21917, DEL265-296); test: Inhibition of the binding of 3H-YM-09151-2 to human dopamine D4 receptors; details: [3H]YM-09151-2 0.06 nM, membranes of CHO-cells; read-out: D4-bind. IC50
T2 construct: expressed in transfected cells; host or cells: CHO cells
T2 sequence (P21917 with tags, fused parts or gaps DEL265-296): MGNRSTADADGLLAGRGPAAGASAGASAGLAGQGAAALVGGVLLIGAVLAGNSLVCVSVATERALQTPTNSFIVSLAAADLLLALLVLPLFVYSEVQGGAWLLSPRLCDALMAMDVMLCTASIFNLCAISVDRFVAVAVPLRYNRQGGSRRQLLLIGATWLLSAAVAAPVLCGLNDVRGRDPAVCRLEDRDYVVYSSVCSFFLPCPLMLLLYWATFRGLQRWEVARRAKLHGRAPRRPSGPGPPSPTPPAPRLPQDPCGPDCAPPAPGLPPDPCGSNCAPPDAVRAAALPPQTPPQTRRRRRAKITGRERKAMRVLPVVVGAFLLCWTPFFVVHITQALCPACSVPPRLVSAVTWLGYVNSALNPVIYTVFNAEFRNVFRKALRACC
Procedure: Inhibition of the Binding of ^3H-YM-09151-2 to Human Dopamine D4 Receptors
By this method the inhibition by drugs of the binding of [^3H]YM-09151-2 (0.06 nM) to membranes of human cloned dopamine D4.2 receptors expressed in CHO-cells is determined in vitro. Method modified from NEN Life Science Products, Inc., technical data certificate PC2533-10/96. The results are given in the following Table 1 as IC50-values or as percent inhibition of the binding of ^3H-YM-09151 -2 at the concentration of the test compound indicated.

[2] = biological target: T3, human cloned dopamine D3 receptors (Homo sapiens, UniProt P35462); test: Inhibition of the binding of [3H]-Spiperone to human D3 receptors; details: [3H]Spiperone 0.3 nM, membranes of CHO-cells; read-out: D3-bind. IC50
T3 construct: expressed in transfected cells; host or cells: CHO cells
T3 sequence (P35462 whole entry): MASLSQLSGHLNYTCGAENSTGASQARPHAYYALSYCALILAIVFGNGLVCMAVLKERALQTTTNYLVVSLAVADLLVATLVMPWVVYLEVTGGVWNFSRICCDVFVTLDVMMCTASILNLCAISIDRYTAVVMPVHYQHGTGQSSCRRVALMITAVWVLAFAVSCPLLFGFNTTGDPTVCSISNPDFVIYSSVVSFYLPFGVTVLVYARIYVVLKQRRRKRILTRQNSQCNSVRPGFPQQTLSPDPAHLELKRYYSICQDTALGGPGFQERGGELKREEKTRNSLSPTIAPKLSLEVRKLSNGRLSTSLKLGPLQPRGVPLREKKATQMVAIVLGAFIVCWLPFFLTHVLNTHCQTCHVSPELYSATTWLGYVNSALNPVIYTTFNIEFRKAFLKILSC
Procedure: Inhibition of the Binding of [^3H]-Spiperone to Human D3 Receptors
By this method the inhibition by drugs of the binding [^3H]Spiperone (0.3 nM) to membranes of human cloned dopamine D3 receptors expressed in CHO-cells is determined in vitro. Method modified from R. G. MacKenzie et al. Eur. J. Pharm.-Mol. Pharm. Sec. 1994, 266, 79-85. The results are given in the following Table 1 as IC50-values or as percent inhibition of the binding of ^3H-Spiperone at the concentration of the test compound indicated.

Row | SMILES | Functional activity at D4 receptor (literature) (D4 receptor) | IC50 [1] [nM] | IC50 [2] [nM] | melting point [°C]
1 | CC(C)Oc1cccnc1N(C)C1CCN(Cc2ccccc2)CC1 [Compound U-101958] | partial D4 receptor agonists | – | – | –
2 | Cc1c(N2CCOCC2)cccc1N1CCN(CCCCc2c[nH]c3ccccc23)CC1 [Compound 1c, 1-[2-methyl-3-(morpholin-4-yl)phenyl]-4-[4-(1H-indol-3-yl)butyl]piperazine] | – | 15 | 130 | 111 to 113
3 | Cc1c(N2CCOCC2)cccc1N1CCN(CCCCc2c[nH]c3ccc(F)cc23)CC1 [Compound 1e, 1-[2-metlyl-3-(morpholin-4-yl)phenyl]-4-[4-(5-fluoro-1H-indol-3-yl)butyl]piperazine] | – | 14 | 63 | 112 to 114
